According to PMC3076504 (2011):

Target: Isocitrate lyase (ICL) (Mycobacterium tuberculosis, UniProt P9WKK7)
Test: colorimetric glyoxylate-phenylhydrazone assay at […] nm, dose response
Assay type: biochemical

Isocitrate lyase (ICL), sequence (P9WKK7 whole entry): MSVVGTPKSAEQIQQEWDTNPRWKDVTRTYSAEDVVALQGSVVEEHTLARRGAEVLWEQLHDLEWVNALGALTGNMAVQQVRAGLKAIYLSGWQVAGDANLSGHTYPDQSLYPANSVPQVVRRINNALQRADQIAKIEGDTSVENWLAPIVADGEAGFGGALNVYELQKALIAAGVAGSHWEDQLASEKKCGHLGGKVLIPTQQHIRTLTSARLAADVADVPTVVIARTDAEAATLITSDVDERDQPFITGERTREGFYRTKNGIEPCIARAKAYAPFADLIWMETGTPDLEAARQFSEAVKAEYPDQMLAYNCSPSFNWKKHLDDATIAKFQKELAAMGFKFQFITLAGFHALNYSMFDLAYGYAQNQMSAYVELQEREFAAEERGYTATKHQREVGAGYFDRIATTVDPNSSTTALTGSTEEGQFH

## O=C(O)C(=O)O [oxalic acid]
  IC50: 13 mM
